Reference: US20040186166A1, “Cannabinoid analogs as peroxisome proliferator activated nuclear receptor gamma activators” (priority 2002, published 2004)

Key:
[1] = target: T1, PPARδ (Mus musculus, UniProt P35396); assay: Partial protease (trypsin) digestion assay, PPARδ; assay type: binding; conditions: 2, 20 and 100 μM AJA
T1 construct: expressed in transfected cells; host or cells: HEK293 / HEK293T
T1 sequence (P35396 1-440): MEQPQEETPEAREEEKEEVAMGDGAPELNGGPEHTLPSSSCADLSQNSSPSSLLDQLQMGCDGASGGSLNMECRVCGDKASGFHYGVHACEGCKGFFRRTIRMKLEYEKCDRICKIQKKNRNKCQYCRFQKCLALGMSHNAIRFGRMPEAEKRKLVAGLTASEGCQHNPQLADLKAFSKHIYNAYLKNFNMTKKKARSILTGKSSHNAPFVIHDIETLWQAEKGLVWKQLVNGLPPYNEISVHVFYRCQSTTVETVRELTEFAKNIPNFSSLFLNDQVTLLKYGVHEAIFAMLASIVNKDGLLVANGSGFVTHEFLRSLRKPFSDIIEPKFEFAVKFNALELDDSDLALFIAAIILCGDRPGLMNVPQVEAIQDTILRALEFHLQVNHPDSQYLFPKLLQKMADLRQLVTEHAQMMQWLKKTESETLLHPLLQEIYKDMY
Description: Partial protease digestion was carried out as described by Leng et. al. (J Steroid Biochem Mol Biol 46:643-61, 1993). PPAR proteins were made by in vitro transcription/translation reactions in reticulocyte lysate according to the manufacture's instructions (Promega). AJA, GW347845, or vehicle alone was incubated with the 35S-labeled PPARs at room temperature for one hour before trypsin digestion. Reactions were stopped by boiling in SDS-containing sample buffer, and lysates were subjected to SDS-PAGE and autoradiography.
The PPAR proteins were synthesized and labeled with ^35S-methionine in reticulocyte lysate and incubated with AJA, GW347845, or vehicle alone at room temperature for one hour before trypsin digestion. The reactions were terminated by boiling in SDS-containing protein sample buffer. The proteolytic patterns of PPAR proteins were then analyzed by SDS-PAGE and autoradiography, and compared with vehicle-treated control samples.
The AJA concentrations required to protect PPARγ from trypsin digestion were further measured.

[2] = target: T2, hRXRα (Homo sapiens, UniProt P19793); assay: DR1-TK-LUC reporter assay, RXRα; assay type: cell-based; conditions: saturating concentrations, HEK293 cells
T2 construct: expressed in transfected cells; host or cells: HEK293
T2 sequence (P19793 1-462): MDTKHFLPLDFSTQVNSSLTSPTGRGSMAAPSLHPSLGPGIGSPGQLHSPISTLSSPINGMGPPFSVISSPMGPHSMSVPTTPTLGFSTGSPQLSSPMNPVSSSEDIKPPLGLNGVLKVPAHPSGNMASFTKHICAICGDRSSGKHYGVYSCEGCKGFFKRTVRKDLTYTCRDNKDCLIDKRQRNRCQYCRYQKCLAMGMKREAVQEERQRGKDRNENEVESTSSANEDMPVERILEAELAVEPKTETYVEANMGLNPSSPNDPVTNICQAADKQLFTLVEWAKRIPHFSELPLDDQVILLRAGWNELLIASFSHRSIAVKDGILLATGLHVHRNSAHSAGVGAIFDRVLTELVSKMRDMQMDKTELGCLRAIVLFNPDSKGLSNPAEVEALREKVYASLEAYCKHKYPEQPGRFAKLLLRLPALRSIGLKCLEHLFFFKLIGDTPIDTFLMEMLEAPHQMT

[3] = target: T3, human PPARα (Homo sapiens, UniProt Q07869); assay: Gal4-dependent MH100-Luc reporter, human PPARα; assay type: cell-based
T3 construct: The Gal4-hPPAR LBD constructs were obtained from GlaxoSmithKline; host or cells: HEK293
T3 sequence (Q07869 239-466 limits assumed): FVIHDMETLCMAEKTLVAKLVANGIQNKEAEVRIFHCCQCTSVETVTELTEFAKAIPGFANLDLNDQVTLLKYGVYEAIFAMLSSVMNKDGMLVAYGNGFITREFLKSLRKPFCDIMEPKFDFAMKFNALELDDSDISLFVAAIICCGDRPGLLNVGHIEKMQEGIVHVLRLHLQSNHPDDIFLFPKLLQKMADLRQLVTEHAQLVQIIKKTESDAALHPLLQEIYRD
Description: The pGEX-DRIP205 (527˜970) was obtained from the Sloan-Kettering Cancer Center. The Gal4-hPPAR LBD constructs were obtained from GlaxoSmithKline, Research Triangle Park, NC. The IL8-Luciferase reporter was obtained from Celgene, San Diego, Calif. The plasmids mPPARα, mPPARγ1, mPPARδ , and hRXRα were in the pCMX vector (Umesono et al., Cell 65:1255-1266, 1991).
For PPARγ activation assay, HEK293 cells were plated in 12-well cell culture plates and maintained in Dulbecco's modified Eagle's medium (DMEM) supplemented with 10% fetal bovine serum (FBS) at 37° C. under 5% CO2. […] The average normalized luciferase activity was determined via triplicate experiments. […]
To further confirm activation of PPARγ by AJA, and also to determine PPARγ species specificity, the ability of AJA to activate the chimeric Gal4-DBD/PPAR fusion proteins on a Gal4-dependent MH100-Luc reporter was assessed (FIG. 4A). The PPARs were expressed as Gal4 DBD fusion proteins, which bind to the UAS promoter containing 4 copies of a synthetic Gal4 binding site upstream of the minimal thymidine kinase (TK) promoter. […] Transfected cells were treated with increasing concentrations of AJA from 10-60 μM and the luciferase activities were determined in triplicate experiments. […]

[4] = target: COX-1 (Homo sapiens, UniProt P23219); conditions: 0.25-25 μM, Zurier et al. 1998; cited from earlier work
Chain of COX-1 (P23219 24-599): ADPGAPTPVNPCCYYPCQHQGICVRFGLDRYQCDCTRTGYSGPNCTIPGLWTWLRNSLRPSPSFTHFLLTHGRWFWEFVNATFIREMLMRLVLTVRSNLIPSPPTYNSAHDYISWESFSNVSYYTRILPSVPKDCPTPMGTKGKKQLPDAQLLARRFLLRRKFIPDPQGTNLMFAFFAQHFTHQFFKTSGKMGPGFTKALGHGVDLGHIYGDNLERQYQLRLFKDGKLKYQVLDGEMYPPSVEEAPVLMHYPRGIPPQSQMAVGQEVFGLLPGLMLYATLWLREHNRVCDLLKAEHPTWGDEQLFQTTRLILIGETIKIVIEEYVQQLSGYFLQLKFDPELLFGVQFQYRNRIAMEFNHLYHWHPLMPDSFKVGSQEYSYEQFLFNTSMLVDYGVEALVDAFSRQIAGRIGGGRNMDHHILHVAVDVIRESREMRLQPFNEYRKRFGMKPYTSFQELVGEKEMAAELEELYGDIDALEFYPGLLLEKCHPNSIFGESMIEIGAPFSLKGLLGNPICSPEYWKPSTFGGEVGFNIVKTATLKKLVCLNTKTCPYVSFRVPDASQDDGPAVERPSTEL

[5] = adjuvant-induced poly-arthritis, rats; cited from earlier work

In the case of `CCCCCCC(C)(C)c1cc(O)c2c(c1)OC(C)(C)[C@@H]1CC=C(C(=O)O)C[C@@H]21` [AJA, dimethylheptyl-THC-11-oic acid], the “proteinase sensitivity of PPARδ” value [1] was “did not affect the proteinase sensitivity”, the “activation of reporter via RXRα” value [2] was “failed to activate the reporter” and the “activation of human PPARα” value [3] was “did not activate”. For the same compound, the “effect on COX-1 activity” value [4] was “no effect” and the chronic joint inflammation [5] was “suppress”.
